Measurements taken from PubChem BioAssay AID2060355 (Molecular Pharmacology Branch, DTP, NCI, 2025).

System: 485368-065-R4-J2-PDC spheroids with HUVEC/MSC, viability
Assay: Anticancer human tumor 485368-065-R4-J2-PDC patient-derived pancreatic carcinoma cell line growth inhibition [TAK]
Conditions: for IC50: curve of first compound; for viability, T/C: stronger effect = lower value
In short: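 Tumor cells were grown as spheroids with HUVEC and hMSC (60:25:15) and treated with targeted agents combined with TAK-243 or ipatasertib. Drugs were tested in half-log steps down from near the clinical Cmax, or from 10 microM where Cmax was unknown.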

[1] = second compound 0.3 µM, first compound 0.0316 µM
[2] = second compound 0.3 µM, first compound 0.1 µM
[3] = second compound 0.949 µM, first compound 0.0316 µM
[4] = second compound 0.949 µM, first compound 0.1 µM
[5] = second compound 3 µM, first compound 0.0316 µM
[6] = second compound 3 µM, first compound 0.1 µM
[7] = second compound 9.49 µM, first compound 0.0316 µM
[8] = second compound 9.49 µM, first compound 0.1 µM
[9] = second compound 30 µM, first compound 0.0316 µM
[10] = second compound 30 µM, first compound 0.1 µM
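Also: spheroids exposed to compounds for seven days before readout.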
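For viability, T/C in this document: 100% = DMSO vehicle control wells.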

Question: How did the IC50 (second compound 0.3 µM) turn out when CC(C)(C)c1nc(-c2cccc(NS(=O)(=O)c3c(F)cccc3F)c2F)c(-c2ccnc(N)n2)s1 + CC(C)NCC(C(=O)N1CCN(c2ncnc3c2C(C)CC3O)CC1)c1ccc(Cl)cc1 was run?
Answer: 2660 nM

Question: What about the IC50 (second compound 0.949 µM) of the same compound?
Answer: 589 nM

Question: And the IC50 (second compound 3 µM)?
Answer: 432 nM

Question: And the IC50 (second compound 9.49 µM)?
Answer: 353 nM

Question: And the IC50 (second compound 30 µM)?
Answer: 305 nM

Question: What about the viability, T/C [1] of the same compound?
Answer: 104%

Question: What about the viability, T/C [2] of the same compound?
Answer: 92.8%

Question: And the viability, T/C (second compound 0.3 µM, first compound 0.316 µM)?
Answer: 71.8%

Question: And the viability, T/C (second compound 0.3 µM, first compound 1 µM)?
Answer: 52.9%

Question: What about the viability, T/C (second compound 0.3 µM, first compound 3.16 µM) of the same compound?
Answer: 50.4%

Question: What about the viability, T/C (second compound 0.3 µM, first compound 10 µM) of the same compound?
Answer: 47.8%

Question: What about the viability, T/C [3] of the same compound?
Answer: 101%

Question: And the viability, T/C [4]?
Answer: 91.3%

Question: What about the viability, T/C (second compound 0.949 µM, first compound 0.316 µM) of the same compound?
Answer: 63.4%

Question: And the viability, T/C (second compound 0.949 µM, first compound 1 µM)?
Answer: 38.5%

Question: What about the viability, T/C (second compound 0.949 µM, first compound 3.16 µM) of the same compound?
Answer: 30.9%

Question: What about the viability, T/C (second compound 0.949 µM, first compound 10 µM) of the same compound?
Answer: 28.1%

Question: And the viability, T/C [5]?
Answer: 98.2%

Question: What about the viability, T/C [6] of the same compound?
Answer: 83%

Question: What about the viability, T/C (second compound 3 µM, first compound 0.316 µM) of the same compound?
Answer: 57.2%

Question: What about the viability, T/C (second compound 3 µM, first compound 1 µM) of the same compound?
Answer: 31.9%

Question: What about the viability, T/C (second compound 3 µM, first compound 3.16 µM) of the same compound?
Answer: 21.2%

Question: And the viability, T/C (second compound 3 µM, first compound 10 µM)?
Answer: 18%

Question: What about the viability, T/C [7] of the same compound?
Answer: 93.4%

Question: What about the viability, T/C [8] of the same compound?
Answer: 80.2%

Question: What about the viability, T/C (second compound 9.49 µM, first compound 0.316 µM) of the same compound?
Answer: 52.5%

Question: And the viability, T/C (second compound 9.49 µM, first compound 1 µM)?
Answer: 28.3%

Question: What about the viability, T/C (second compound 9.49 µM, first compound 3.16 µM) of the same compound?
Answer: 18.5%

Question: What about the viability, T/C (second compound 9.49 µM, first compound 10 µM) of the same compound?
Answer: 17.5%

Question: And the viability, T/C [9]?
Answer: 77.2%

Question: What about the viability, T/C [10] of the same compound?
Answer: 69.9%

Question: And the viability, T/C (second compound 30 µM, first compound 0.316 µM)?
Answer: 49.8%

Question: And the viability, T/C (second compound 30 µM, first compound 1 µM)?
Answer: 24.8%

Question: And the viability, T/C (second compound 30 µM, first compound 3.16 µM)?
Answer: 16.4%

Question: And the viability, T/C (second compound 30 µM, first compound 10 µM)?
Answer: 15.3%

Question: What does the source list for CC(C)n1nc(-c2ccc3oc(N)nc3c2)c2c(N)ncnc21 + CC(C)NCC(C(=O)N1CCN(c2ncnc3c2C(C)CC3O)CC1)c1ccc(Cl)cc1?
Answer: IC50 (second compound 0.3 µM): 58.5 nM; IC50 (second compound 0.949 µM): 29.3 nM; IC50 (second compound 3 µM): 20.8 nM; IC50 (second compound 9.49 µM): 10.1 nM; IC50 (second compound 30 µM): 6.33 nM; viability, T/C (second compound 0.3 µM, first compound 0.000316 µM): 95.7%; viability, T/C (second compound 0.3 µM, first compound 0.001 µM): 88%; viability, T/C (second compound 0.3 µM, first compound 0.00316 µM): 90.6%; viability, T/C (second compound 0.3 µM, first compound 0.01 µM): 89.7%; viability, T/C [1]: 56.5%; viability, T/C [2]: 44.4%; viability, T/C (second compound 0.949 µM, first compound 0.000316 µM): 98.6%; viability, T/C (second compound 0.949 µM, first compound 0.001 µM): 99.3%; viability, T/C (second compound 0.949 µM, first compound 0.00316 µM): 91.4%; viability, T/C (second compound 0.949 µM, first compound 0.01 µM): 66.7%; viability, T/C [3]: 51.2%; viability, T/C [4]: 40.3%; viability, T/C (second compound 3 µM, first compound 0.000316 µM): 97.8%; viability, T/C (second compound 3 µM, first compound 0.001 µM): 94.4%; viability, T/C (second compound 3 µM, first compound 0.00316 µM): 81.4%; viability, T/C (second compound 3 µM, first compound 0.01 µM): 62.5%; viability, T/C [5]: 42.7%; viability, T/C [6]: 34.5%; viability, T/C (second compound 9.49 µM, first compound 0.000316 µM): 91.9%; viability, T/C (second compound 9.49 µM, first compound 0.001 µM): 86.1%; viability, T/C (second compound 9.49 µM, first compound 0.00316 µM): 75.2%; viability, T/C (second compound 9.49 µM, first compound 0.01 µM): 49.4%; viability, T/C [7]: 36.8%; viability, T/C [8]: 32.5%; viability, T/C (second compound 30 µM, first compound 0.000316 µM): 73.1%; viability, T/C (second compound 30 µM, first compound 0.001 µM): 69.3%; viability, T/C (second compound 30 µM, first compound 0.00316 µM): 57.6%; viability, T/C (second compound 30 µM, first compound 0.01 µM): 45.3%; viability, T/C [9]: 31.4%; viability, T/C [10]: 25.7%
